# Reference: ChEMBL document CHEMBL1201862, “PubChem BioAssay data set” (2004)
#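 Compound exposure: 48 hours, 5 concentrations, 96-well plates. GI50 marks 50% less growth.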 Active and inactive are the calls of the source. No stated cut-off is given here; in the data, active = GI50 up to about 1.1 µM and inactive = higher.
# Tests used:
# Experiment in all cases: NCI-60 cell line screen, 48 h
# 786-0 = tested on: 786-0
# ACHN = tested on: ACHN
# DU-145 = tested on: DU-145
# HCC 2998 = tested on: HCC 2998
# HCT-116 = tested on: HCT-116
# IGROV-1 = tested on: IGROV-1
# K562 = tested on: K562
# KM12 = tested on: KM12
# MCF7 = tested on: MCF7
# NCI-H226 = tested on: NCI-H226
# OVCAR-4 = tested on: OVCAR-4
# OVCAR-5 = tested on: OVCAR-5
# RXF 393 = tested on: RXF 393
# SF-295 = tested on: SF-295
# SK-MEL-28 = tested on: SK-MEL-28
# SNB-75 = tested on: SNB-75
# SW-620 = tested on: SW-620
# TK-10 = tested on: TK-10
# UO-31 = tested on: UO-31
SMILES,GI50 (786-0),GI50 (ACHN),GI50 (DU-145),GI50 (HCC 2998),GI50 (HCT-116),GI50 (IGROV-1),GI50 (K562),GI50 (KM12),GI50 (MCF7),GI50 (NCI-H226),GI50 (OVCAR-4),GI50 (OVCAR-5),GI50 (RXF 393),GI50 (SF-295),GI50 (SK-MEL-28),GI50 (SNB-75),GI50 (SW-620),GI50 (TK-10),GI50 (UO-31)
N=C(N)NC(=N)Nc1ccccc1.Sc1nc2ccccc2s1,> 100 µM (inactive),> 100 µM (inactive),> 100 µM (inactive),> 100 µM (inactive),> 100 µM (inactive),70.5 µM (inactive),> 100 µM (inactive),> 100 µM (inactive),> 100 µM (inactive),> 100 µM (inactive),> 100 µM (inactive),> 100 µM (inactive),> 100 µM (inactive),> 100 µM (inactive),> 100 µM (inactive),> 100 µM (inactive),> 100 µM (inactive),> 100 µM (inactive),> 100 µM (inactive)
O=C1NC2c3c(I)sc(I)c3/C(=N\O)C2O1 (stereo not given),24.4 µM (inactive),17 µM (inactive),53.7 µM (inactive),35.1 µM (inactive),25.1 µM (inactive),19.8 µM (inactive),19.9 µM (inactive),30.1 µM (inactive),33.8 µM (inactive),31 µM (inactive),26.1 µM (inactive),30.5 µM (inactive),12.7 µM (inactive),45.6 µM (inactive),41.8 µM (inactive),59.6 µM (inactive),19 µM (inactive),48.5 µM (inactive),15.7 µM (inactive)
O=C1Cc2cc3ccccc3nc2-c2ccccc2N1,35.1 µM (inactive),54.7 µM (inactive),79.6 µM (inactive),31.4 µM (inactive),23.9 µM (inactive),> 100 µM (inactive),39.9 µM (inactive),> 100 µM (inactive),49 µM (inactive),> 100 µM (inactive),45.6 µM (inactive),> 100 µM (inactive),70.5 µM (inactive),85.5 µM (inactive),> 100 µM (inactive),24.7 µM (inactive),> 100 µM (inactive),27.7 µM (inactive),35.4 µM (inactive)
CN1c2ccccc2C2c3c(O)ccc(O)c3C=C([N+](=O)[O-])C21 (stereo not given),0.519 µM (active),0.679 µM (active),1.44 µM (inactive),0.716 µM (active),0.205 µM (active),0.492 µM (active),0.497 µM (active),0.39 µM (active),0.155 µM (active),16.2 µM (inactive),1.21 µM (inactive),1.83 µM (inactive),3.91 µM (inactive),2.53 µM (inactive),2.03 µM (inactive),4.7 µM (inactive),0.406 µM (active),11.2 µM (inactive),0.521 µM (active)
COC(=O)C1=C(O)C(C(=O)OC)[C@]2(O)[C@H](C(=O)OC)[C@H]1C[C@@H](c1ccc(Cl)cc1Cl)[C@H]2C(=O)OC (stereo not given in full),26.3 µM (inactive),11 µM (inactive),6.68 µM (inactive),10.1 µM (inactive),6.3 µM (inactive),6.3 µM (inactive),3.47 µM (inactive),12.3 µM (inactive),4.79 µM (inactive),2.91 µM (inactive),6.55 µM (inactive),17 µM (inactive),7.76 µM (inactive),7.46 µM (inactive),12.4 µM (inactive),8.61 µM (inactive),6.01 µM (inactive),12.6 µM (inactive),8.97 µM (inactive)
O=C(O)CCSC1=NCCN1,> 100 µM (inactive),> 100 µM (inactive),> 100 µM (inactive),> 100 µM (inactive),> 100 µM (inactive),> 100 µM (inactive),> 100 µM (inactive),> 100 µM (inactive),> 100 µM (inactive),> 100 µM (inactive),> 100 µM (inactive),> 100 µM (inactive),> 100 µM (inactive),> 100 µM (inactive),> 100 µM (inactive),> 100 µM (inactive),> 100 µM (inactive),> 100 µM (inactive),> 100 µM (inactive)
N#CC1=C(N)N(/N=C/c2ccccc2)C(c2ccccc2)C1(C#N)C#N (stereo not given),4.7 µM (inactive),4.3 µM (inactive),16.5 µM (inactive),19.6 µM (inactive),2.81 µM (inactive),13.7 µM (inactive),2.98 µM (inactive),22.8 µM (inactive),8.17 µM (inactive),18.6 µM (inactive),14.9 µM (inactive),18.7 µM (inactive),3.39 µM (inactive),17.1 µM (inactive),4.79 µM (inactive),16.9 µM (inactive),5.18 µM (inactive),6.3 µM (inactive),15.7 µM (inactive)
CCCCC(=C=C(C)CO)C1CCCN1C(=O)OC(C)(C)C (stereo not given),16.4 µM (inactive),24.8 µM (inactive),18.1 µM (inactive),8.02 µM (inactive),15.6 µM (inactive),17.9 µM (inactive),17.9 µM (inactive),18.4 µM (inactive),20.4 µM (inactive),16 µM (inactive),17.3 µM (inactive),21 µM (inactive),15.2 µM (inactive),16.3 µM (inactive),18.4 µM (inactive),22.5 µM (inactive),29.2 µM (inactive),19.4 µM (inactive),22.9 µM (inactive)
Cn1c(=O)c2c(nc3n(CCCCl)c(=O)ccn23)n(C)c1=O,> 100 µM (inactive),> 100 µM (inactive),> 100 µM (inactive),> 100 µM (inactive),> 100 µM (inactive),> 100 µM (inactive),> 100 µM (inactive),> 100 µM (inactive),> 100 µM (inactive),> 100 µM (inactive),> 100 µM (inactive),> 100 µM (inactive),> 100 µM (inactive),> 100 µM (inactive),> 100 µM (inactive),> 100 µM (inactive),> 100 µM (inactive),> 100 µM (inactive),> 100 µM (inactive)
O=C1C(Cl)=C(N2CCOCC2)C(=O)c2c(O)ccc(O)c21,0.296 µM (active),0.263 µM (active),1.53 µM (inactive),1.67 µM (inactive),0.213 µM (active),0.612 µM (active),10 µM (inactive),1.64 µM (inactive),0.213 µM (active),1.83 µM (inactive),0.256 µM (active),0.497 µM (active),0.222 µM (active),1.64 µM (inactive),0.288 µM (active),0.667 µM (active),0.156 µM (active),0.638 µM (active),0.351 µM (active)
COc1c(C)c(C/C=C(\C)CCCCO[Si](c2ccccc2)(c2ccccc2)C(C)(C)C)c(OC)c(OC)c1OC,22.7 µM (inactive),16.2 µM (inactive),27.9 µM (inactive),41.8 µM (inactive),35.5 µM (inactive),24.9 µM (inactive),28.8 µM (inactive),14.8 µM (inactive),> 46.5 µM (inactive),> 100 µM (inactive),28.1 µM (inactive),> 46.5 µM (inactive),> 100 µM (inactive),> 46.5 µM (inactive),> 100 µM (inactive),> 46.3 µM (inactive),45.6 µM (inactive),> 31.6 µM (inactive),9.27 µM (inactive)
CC(ON(C(c1ccccc1)C(C)C)C(C)(C)C)c1ccccc1 (stereo not given),16.4 µM (inactive),15.8 µM (inactive),18.5 µM (inactive),17.3 µM (inactive),14.7 µM (inactive),23.1 µM (inactive),18.9 µM (inactive),18.4 µM (inactive),16.4 µM (inactive),19 µM (inactive),27 µM (inactive),16 µM (inactive),16.3 µM (inactive),14.9 µM (inactive),20.4 µM (inactive),25.1 µM (inactive),16.2 µM (inactive),22.4 µM (inactive),24.5 µM (inactive)
O=[N+]([O-])c1cc2c(c([N+](=O)[O-])c1)NCc1ccccc1O2,43.4 µM (inactive),> 100 µM (inactive),> 100 µM (inactive),> 100 µM (inactive),> 100 µM (inactive),> 100 µM (inactive),> 10 µM (inactive),> 100 µM (inactive),> 100 µM (inactive),> 100 µM (inactive),70.5 µM (inactive),> 100 µM (inactive),16 µM (inactive),> 100 µM (inactive),> 100 µM (inactive),12.9 µM (inactive),> 100 µM (inactive),> 100 µM (inactive),> 100 µM (inactive)
COc1ccc2c(c1)[nH]c1c(/C=C/c3ccccc3)nccc12,15.1 µM (inactive),12.2 µM (inactive),20.5 µM (inactive),13 µM (inactive),12.1 µM (inactive),14.7 µM (inactive),15.9 µM (inactive),14.1 µM (inactive),16 µM (inactive),17.4 µM (inactive),19.6 µM (inactive),14.9 µM (inactive),14.8 µM (inactive),8.81 µM (inactive),14.9 µM (inactive),12.3 µM (inactive),15.9 µM (inactive),19.4 µM (inactive),10.4 µM (inactive)
O=C1Nc2ccc([N+](=O)[O-])cc2/C1=N/NC(=S)Nc1ccc([N+](=O)[O-])cc1,16.9 µM (inactive),24.8 µM (inactive),21.5 µM (inactive),20.9 µM (inactive),20.4 µM (inactive),17.7 µM (inactive),34.2 µM (inactive),18.6 µM (inactive),25.4 µM (inactive),27.9 µM (inactive),19.3 µM (inactive),28.7 µM (inactive),17.5 µM (inactive),19.8 µM (inactive),26.5 µM (inactive),21.8 µM (inactive),39.2 µM (inactive),24.7 µM (inactive),18 µM (inactive)
